Assay results reported in ChEMBL document CHEMBL1649275, “Alterations in two-component regulatory systems of phoPQ and pmrAB are associated with polymyxin B resistance in clinical isolates of Pseudomonas aeruginosa” (2009).
Values after ≈ are worked out from the molar mass of the structure shown.

Columns and labels:
Pseudomonas aeruginosa [1] = assay: Antibacterial activity against Pseudomonas aeruginosa NY215 by broth dilution method; assay type: functional
Pseudomonas aeruginosa [2] = assay: Antibacterial activity against Pseudomonas aeruginosa PAO1 by broth dilution method; assay type: functional
Pseudomonas aeruginosa [3] = assay: Antibacterial activity against Pseudomonas aeruginosa NY220 by broth dilution method; assay type: functional
Pseudomonas aeruginosa [4] = assay: Antibacterial activity against Pseudomonas aeruginosa NY217 by broth dilution method; assay type: functional
Pseudomonas aeruginosa [5] = assay: Antibacterial activity against Pseudomonas aeruginosa NY214 by broth dilution method; assay type: functional
Pseudomonas aeruginosa [6] = assay: Antibacterial activity against Pseudomonas aeruginosa NY219 by broth dilution method; assay type: functional
Pseudomonas aeruginosa [7] = assay: Antibacterial activity against Pseudomonas aeruginosa NY214 harboring Pseudomonas aeruginosa PAO1 pmrAB gene by broth dilution method; assay type: functional, organism-based
Pseudomonas aeruginosa [8] = assay: Antibacterial activity against Pseudomonas aeruginosa PAO1 harboring Pseudomonas aeruginosa PAO1 deltapmrAB::Tc/pAU126 by broth dilution method; assay type: functional, organism-based
Pseudomonas aeruginosa [9] = assay: Antibacterial activity against Pseudomonas aeruginosa NY220 harboring arnB::TC by broth dilution method; assay type: functional, organism-based
Pseudomonas aeruginosa [10] = assay: Antibacterial activity against Pseudomonas aeruginosa PAO1 harboring deltapmrAB::Tc/pUCP18 by broth dilution method; assay type: functional, organism-based
Pseudomonas aeruginosa [11] = assay: Antibacterial activity against Pseudomonas aeruginosa PAO1 harboring deltaoprH-phoPQ::Gm by broth dilution method; assay type: functional, organism-based
Pseudomonas aeruginosa [12] = assay: Antibacterial activity against Pseudomonas aeruginosa NY214 harboring arnB::TC by broth dilution method; assay type: functional, organism-based
Pseudomonas aeruginosa [13] = assay: Antibacterial activity against Pseudomonas aeruginosa PAO1 harboring deltapmrAB::Tc by broth dilution method; assay type: functional, organism-based
Pseudomonas aeruginosa [14] = assay: Antibacterial activity against Pseudomonas aeruginosa NY215 harboring Pseudomonas aeruginosa PAO1 phoPQ gene by broth dilution method; assay type: functional, organism-based
Pseudomonas aeruginosa [15] = assay: Antibacterial activity against Pseudomonas aeruginosa NY215 harboring pUCP18 by broth dilution method; assay type: functional, organism-based
Pseudomonas aeruginosa [16] = assay: Antibacterial activity against Pseudomonas aeruginosa PAO1 harboring arnB::TC by broth dilution method; assay type: functional, organism-based
Pseudomonas aeruginosa [17] = assay: Antibacterial activity against Pseudomonas aeruginosa NY219 harboring Pseudomonas aeruginosa PAO1 pmrAB gene by broth dilution method; assay type: functional, organism-based
Pseudomonas aeruginosa [18] = assay: Antibacterial activity against Pseudomonas aeruginosa NY214 harboring Pseudomonas aeruginosa PAO1 phoPQ gene by broth dilution method; assay type: functional, organism-based
Pseudomonas aeruginosa [19] = assay: Antibacterial activity against Pseudomonas aeruginosa NY220 harboring Pseudomonas aeruginosa PAO1 phoPQ gene by broth dilution method; assay type: functional, organism-based
Pseudomonas aeruginosa [20] = assay: Antibacterial activity against Pseudomonas aeruginosa NY214 harboring pUCP18 by broth dilution method; assay type: functional, organism-based
Pseudomonas aeruginosa [21] = assay: Antibacterial activity against Pseudomonas aeruginosa PAO1 harboring Pseudomonas aeruginosa NY220 deltapmrAB::Tc/pAU154 by broth dilution method; assay type: functional, organism-based
Pseudomonas aeruginosa [22] = assay: Antibacterial activity against Pseudomonas aeruginosa NY219 harboring Pseudomonas aeruginosa PAO1 phoPQ gene by broth dilution method; assay type: functional, organism-based
Pseudomonas aeruginosa [23] = assay: Antibacterial activity against Pseudomonas aeruginosa NY217 harboring pUCP18 by broth dilution method; assay type: functional, organism-based
Pseudomonas aeruginosa [24] = assay: Antibacterial activity against Pseudomonas aeruginosa PAO1 harboring Pseudomonas aeruginosa NY215 deltaoprH-phoPQ::Gm/pAU147 by broth dilution method; assay type: functional, organism-based
Pseudomonas aeruginosa [25] = assay: Antibacterial activity against Pseudomonas aeruginosa NY220 harboring pUCP18 by broth dilution method; assay type: functional, organism-based
Pseudomonas aeruginosa [26] = assay: Antibacterial activity against Pseudomonas aeruginosa NY220 harboring Pseudomonas aeruginosa PAO1 pmrAB gene by broth dilution method; assay type: functional, organism-based
Pseudomonas aeruginosa [27] = assay: Antibacterial activity against Pseudomonas aeruginosa PAO1 harboring Pseudomonas aeruginosa NY217 deltaoprH-phoPQ::Gm/pAU148 by broth dilution method; assay type: functional, organism-based
Pseudomonas aeruginosa [28] = assay: Antibacterial activity against Pseudomonas aeruginosa PAO1 harboring deltaoprH-phoPQ::Gm/pUCP18 by broth dilution method; assay type: functional, organism-based
Pseudomonas aeruginosa [29] = assay: Antibacterial activity against Pseudomonas aeruginosa PAO1 harboring Pseudomonas aeruginosa NY219 deltaoprH-phoPQ::Gm/pAU149 by broth dilution method; assay type: functional, organism-based
Pseudomonas aeruginosa [30] = assay: Antibacterial activity against Pseudomonas aeruginosa PAO1 harboring Pseudomonas aeruginosa NY214 deltaoprH-phoPQ::Gm/pAU146 by broth dilution method; assay type: functional, organism-based
Pseudomonas aeruginosa [31] = assay: Antibacterial activity against Pseudomonas aeruginosa NY219 harboring pUCP18 by broth dilution method; assay type: functional, organism-based
Pseudomonas aeruginosa [32] = assay: Antibacterial activity against Pseudomonas aeruginosa NY217 harboring Pseudomonas aeruginosa PAO1 pmrAB gene by broth dilution method; assay type: functional, organism-based
Pseudomonas aeruginosa [33] = assay: Antibacterial activity against Pseudomonas aeruginosa NY215 harboring arnB::TC by broth dilution method; assay type: functional, organism-based
Pseudomonas aeruginosa [34] = assay: Antibacterial activity against Pseudomonas aeruginosa NY217 harboring Pseudomonas aeruginosa PAO1 phoPQ gene by broth dilution method; assay type: functional, organism-based
Pseudomonas aeruginosa [35] = assay: Antibacterial activity against Pseudomonas aeruginosa PAO1 harboring Pseudomonas aeruginosa PAO1 deltaoprH-phoPQ::Gm/pAU124 by broth dilution method; assay type: functional, organism-based
Pseudomonas aeruginosa [36] = assay: Antibacterial activity against Pseudomonas aeruginosa NY217 harboring arnB::TC by broth dilution method; assay type: functional, organism-based
Pseudomonas aeruginosa [37] = assay: Antibacterial activity against Pseudomonas aeruginosa NY215 harboring Pseudomonas aeruginosa PAO1 pmrAB gene by broth dilution method; assay type: functional, organism-based

Molecule: CC1(C)S[C@@H]2[C@H](NC(=O)[C@H](NC(=O)N3CCNC3=O)c3ccccc3)C(=O)N2[C@H]1C(=O)O [AZLOCILLIN]
- MIC (Pseudomonas aeruginosa [1]): 8 µg/mL (≈ 17.3 µM)
- MIC (Pseudomonas aeruginosa [2]): 2 µg/mL (≈ 4.33 µM)
- MIC (Pseudomonas aeruginosa [3]): 16 µg/mL (≈ 34.7 µM)
- MIC (Pseudomonas aeruginosa [4]): 16 µg/mL (≈ 34.7 µM)
- MIC (Pseudomonas aeruginosa [5]): 8 µg/mL (≈ 17.3 µM)
- MIC (Pseudomonas aeruginosa [6]): 8 µg/mL (≈ 17.3 µM)

Molecule: CC1(C)S[C@@H]2[C@H](NC(=O)C(C(=O)O)c3ccccc3)C(=O)N2[C@H]1C(=O)O (stereo partly specified) [CARBENICILLIN]
- MIC (Pseudomonas aeruginosa [1]): 256 µg/mL (≈ 677 µM)
- MIC (Pseudomonas aeruginosa [2]): 64 µg/mL (≈ 169 µM)
- MIC (Pseudomonas aeruginosa [3]): > 256 µg/mL
- MIC (Pseudomonas aeruginosa [4]): > 256 µg/mL
- MIC (Pseudomonas aeruginosa [5]): 256 µg/mL (≈ 677 µM)
- MIC (Pseudomonas aeruginosa [6]): 256 µg/mL (≈ 677 µM)

Molecule: CO/N=C(\C(=O)N[C@@H]1C(=O)N2C(C(=O)O)=C(CSc3nc(=O)c(O)nn3C)CS[C@H]12)c1csc(N)n1 [CEFTRIAXONE]
- MIC (Pseudomonas aeruginosa [1]): 32 µg/mL (≈ 57.7 µM)
- MIC (Pseudomonas aeruginosa [2]): 4 µg/mL (≈ 7.21 µM)
- MIC (Pseudomonas aeruginosa [3]): 32 µg/mL (≈ 57.7 µM)
- MIC (Pseudomonas aeruginosa [4]): 16 µg/mL (≈ 28.9 µM)
- MIC (Pseudomonas aeruginosa [5]): 16 µg/mL (≈ 28.9 µM)
- MIC (Pseudomonas aeruginosa [6]): 32 µg/mL (≈ 57.7 µM)

Molecule: O=C(O)c1cn(C2CC2)c2cc(N3CCNCC3)c(F)cc2c1=O [CIPROFLOXACIN]
- MIC (Pseudomonas aeruginosa [1]): 4 µg/mL (≈ 12.1 µM)
- MIC (Pseudomonas aeruginosa [4]): 1 µg/mL (≈ 3.02 µM)

Molecule: CCn1cc(C(=O)O)c(=O)c2ccc(C)nc21 [NALIDIXIC ACID]
- MIC (Pseudomonas aeruginosa [1]): > 256 µg/mL
- MIC (Pseudomonas aeruginosa [2]): 64 µg/mL (≈ 276 µM)
- MIC (Pseudomonas aeruginosa [3]): > 256 µg/mL
- MIC (Pseudomonas aeruginosa [4]): 64 µg/mL (≈ 276 µM)
- MIC (Pseudomonas aeruginosa [5]): > 256 µg/mL
- MIC (Pseudomonas aeruginosa [6]): 64 µg/mL (≈ 276 µM)

Molecule: CC1(C)S[C@@H]2[C@H](NC(=O)[C@H](C(=O)O)c3ccsc3)C(=O)N2[C@H]1C(=O)O [TICARCILLIN]
- MIC (Pseudomonas aeruginosa [1]): 32 µg/mL (≈ 83.2 µM)
- MIC (Pseudomonas aeruginosa [2]): 8 µg/mL (≈ 20.8 µM)
- MIC (Pseudomonas aeruginosa [3]): 32 µg/mL (≈ 83.2 µM)
- MIC (Pseudomonas aeruginosa [4]): 32 µg/mL (≈ 83.2 µM)
- MIC (Pseudomonas aeruginosa [5]): 32 µg/mL (≈ 83.2 µM)
- MIC (Pseudomonas aeruginosa [6]): 32 µg/mL (≈ 83.2 µM)

Molecule: NC[C@H]1O[C@H](O[C@H]2[C@H](O)[C@@H](O[C@H]3O[C@H](CO)[C@@H](O)[C@H](N)[C@H]3O)[C@H](N)C[C@@H]2N)[C@H](N)C[C@@H]1O [TOBRAMYCIN]
- MIC (Pseudomonas aeruginosa [1]): 2 µg/mL (≈ 4.28 µM)
- MIC (Pseudomonas aeruginosa [2]): 0.25 µg/mL (≈ 0.535 µM)
- MIC (Pseudomonas aeruginosa [3]): 8 µg/mL (≈ 17.1 µM)
- MIC (Pseudomonas aeruginosa [4]): 1 µg/mL (≈ 2.14 µM)
- MIC (Pseudomonas aeruginosa [5]): 2 µg/mL (≈ 4.28 µM)
- MIC (Pseudomonas aeruginosa [6]): 2 µg/mL (≈ 4.28 µM)

Molecule: GENTAMICIN
- MIC (Pseudomonas aeruginosa [1]): 32 µg/mL
- MIC (Pseudomonas aeruginosa [2]): 0.25 µg/mL
- MIC (Pseudomonas aeruginosa [3]): 4 µg/mL
- MIC (Pseudomonas aeruginosa [4]): 4 µg/mL
- MIC (Pseudomonas aeruginosa [5]): 4 µg/mL
- MIC (Pseudomonas aeruginosa [6]): 4 µg/mL

Molecule: POLYMYXIN B
- MIC (Pseudomonas aeruginosa [7]): 1 µg/mL
- MIC (Pseudomonas aeruginosa [1]): 8 µg/mL
- MIC (Pseudomonas aeruginosa [2]): 0.5 µg/mL
- MIC (Pseudomonas aeruginosa [8]): < 0.25 µg/mL
- MIC (Pseudomonas aeruginosa [9]): 0.5 µg/mL
- MIC (Pseudomonas aeruginosa [10]): 0.25 µg/mL
- MIC (Pseudomonas aeruginosa [11]): 0.5 µg/mL
- MIC (Pseudomonas aeruginosa [12]): 0.5 µg/mL
- MIC (Pseudomonas aeruginosa [13]): 0.25 µg/mL
- MIC (Pseudomonas aeruginosa [14]): 0.5 µg/mL
- MIC (Pseudomonas aeruginosa [3]): 8 µg/mL
- MIC (Pseudomonas aeruginosa [15]): 8 µg/mL
- MIC (Pseudomonas aeruginosa [16]): 0.5 µg/mL
- MIC (Pseudomonas aeruginosa [17]): 1 µg/mL
- MIC (Pseudomonas aeruginosa [18]): 1 µg/mL
- MIC (Pseudomonas aeruginosa [19]): 8 µg/mL
- MIC (Pseudomonas aeruginosa [20]): 8 µg/mL
- MIC (Pseudomonas aeruginosa [21]): 4 µg/mL
- MIC (Pseudomonas aeruginosa [22]): 1 µg/mL
- MIC (Pseudomonas aeruginosa [23]): 8 µg/mL
- MIC (Pseudomonas aeruginosa [24]): 4 µg/mL
- MIC (Pseudomonas aeruginosa [25]): 8 µg/mL
- MIC (Pseudomonas aeruginosa [26]): 8 µg/mL
- MIC (Pseudomonas aeruginosa [27]): 4 µg/mL
- MIC (Pseudomonas aeruginosa [28]): 0.25 µg/mL
- MIC (Pseudomonas aeruginosa [29]): 4 µg/mL
- MIC (Pseudomonas aeruginosa [30]): 4 µg/mL
- MIC (Pseudomonas aeruginosa [4]): 8 µg/mL
- MIC (Pseudomonas aeruginosa [5]): 8 µg/mL
- MIC (Pseudomonas aeruginosa [31]): 8 µg/mL
- MIC (Pseudomonas aeruginosa [32]): 1 µg/mL
- MIC (Pseudomonas aeruginosa [33]): 0.5 µg/mL
- MIC (Pseudomonas aeruginosa [34]): 1 µg/mL
- MIC (Pseudomonas aeruginosa [35]): 0.25 µg/mL
- MIC (Pseudomonas aeruginosa [6]): 8 µg/mL
- MIC (Pseudomonas aeruginosa [36]): 0.5 µg/mL
- MIC (Pseudomonas aeruginosa [37]): 0.5 µg/mL
